Data as given in patent publication US9656962B2, “Ring-contracted morphinans and the use thereof” (Purdue Pharma L.P., priority 2013, dated 2017).

Key:
Assay type in all cases: biochemical
μ-opioid receptor [1] = molecular target: T1, μ-opioid receptor (Homo sapiens (Human), UniProt P35372); experiment: μ-opioid receptor [35S]GTPγS functional assay, HEK-293 or CHO cells (Table 4); conditions: for Emax: relative to DAMGO; for EC50: μ GTP
Procedure: μ-Opioid Receptor Functional Assay Procedures: [^35S]GTPγS functional assays were conducted using freshly thawed μ-receptor membranes prepared in-house from a cell line expressing recombinant μ opioid receptor in a HEK-293, CHO or U-2 OS cell background, or purchased from a commercial source (Perkin Elmer, Shelton, Conn.; or DiscovRx, Fremont, Calif.). Assay reactions were prepared by sequentially adding the following reagents to binding buffer (100 mM NaCl, 10 mM MgCl2, 20 mM HEPES, pH 7.4) on ice (final concentrations indicated): membrane protein (0.026 mg/mL), saponin ([…]), GDP ([…]) and [^35S]GTPγS (0.20 nM; Perkin Elmer, Shelton, Conn.). The prepared membrane solution (190 μl/well) was transferred to 96-shallow well polypropylene plates containing 10 μl of 20× concentrated stock solutions of the agonist [D-Ala^2, N-methyl-Phe^4 Gly-ol^5]-enkephalin (DAMGO) prepared in dimethyl sulfoxide (DMSO). Plates were incubated for 30 min at about 25° C. with shaking Reactions were terminated by rapid filtration onto 96-well Unifilter GF/B filter plates (Perkin Elmer, Shelton, Conn.) using a 96-well tissue harvester (Perkin Elmer, Shelton, Conn.) followed by three filtration washes with 200 μl of ice-cold wash buffer (10 mM NaH2PO4, 10 mM Na2HPO4, pH 7.4). Filter plates were subsequently dried at 50° C. for 2-3 hours. BetaScint scintillation cocktail (Perkin Elmer, Shelton, Conn.) was added (50 μl/well) and plates were counted using a Packard Top-Count for 1 min/well. Data were analyzed using the sigmoidal dose-response curve fitting functions in GraphPad PRISM v. 3.0, or an in-house function for non-linear, sigmoidal dose-response curve-fitting. [^35S]GTPγS functional assays can also be conducted using freshly thawed μ-receptor membranes prepared from a cell line expressing recombinant μ opioid receptor in a CHO-K1 cell background.
μ GTP Emax (%) is the maximal effect elicited by a compound relative to the effect elicited by DAMGO, a standard μ agonist.
(§1) In TABLE 4, activity response of certain Compounds of the Invention to the μ- and κ-opioid receptors was determined as described above for functional assays using HEK-293 or CHO cells.

κ-opioid receptor [2] = molecular target: T2, κ-opioid receptor (Homo sapiens (Human), UniProt P41145); experiment: κ-opioid receptor [35S]GTPγS functional assay, HEK-293 or CHO cells (Table 4); conditions: for Emax: relative to U69,593; for EC50: κ GTP
Procedure: κ-Opioid Receptor Functional Assay Procedures: Functional [^35S]GTPγS binding assays were conducted as follows. κ opioid receptor membrane solution was prepared by sequentially adding final concentrations of 0.026 μg/μl κ membrane protein (in-house), 10 μg/mL saponin, 3 μM GDP and 0.20 nM [^35S]GTPγS to binding buffer (100 mM NaCl, 10 mM MgCl2, 20 mM HEPES, pH 7.4) on ice. The prepared membrane solution (190 μl/well) was transferred to 96-shallow well polypropylene plates containing 10 μl of 20× concentrated stock solutions of agonist prepared in DMSO. Plates were incubated for 30 min at a temperature of about 25° C. with shaking. Reactions were terminated by rapid filtration onto 96-well Unifilter GF/B filter plates (Perkin Elmer, Shelton, Conn.) using a 96-well tissue harvester (Packard) and followed by three filtration washes with 200 μl ice-cold binding buffer (10 mM NaH2PO4, 10 mM Na2HPO4, pH 7.4). Filter plates were subsequently dried at 50° C. for 2-3 hours. Fifty μl/well scintillation cocktail (Perkin Elmer, Shelton, Conn.) was added and plates were counted in a Packard Top-Count for 1 min/well.
κ GTP Emax (%) is the maximal effect elicited by a compound relative to the effect elicited by U69,593.
as §1

μ-opioid receptor [3] = molecular target: T1, μ-opioid receptor; experiment: μ-opioid receptor [35S]GTPγS functional assay, U-2 OS cells (Table 5); conditions: for Emax: relative to DAMGO; for EC50: μ GTP
How it was run: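 Membranes (0.026 mg/mL) from cells expressing recombinant human μ-opioid receptor in a U-2 OS background were incubated with 0.20 nM [35S]GTPγS, 3 mM GDP and saponin in 20 mM HEPES pH 7.4, 100 mM NaCl, 10 mM MgCl2 for 30 min at about 25 °C. Filter-bound radioactivity counted; sigmoidal dose-response fits gave values, Emax relative to DAMGO.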

κ-opioid receptor [4] = molecular target: T2, κ-opioid receptor; experiment: κ-opioid receptor [35S]GTPγS functional assay, U-2 OS cells (Table 5); conditions: for Emax: relative to U69,593; for EC50: κ GTP
How it was run: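 [35S]GTPγS binding in κ receptor membranes (0.026 μg/μl protein) with 10 μg/mL saponin, 3 μM GDP and 0.20 nM [35S]GTPγS in pH 7.4 HEPES/NaCl/MgCl2 buffer. Agonist incubation lasted 30 min at about 25 °C, followed by filtration and scintillation counting. Emax is expressed relative to U69,593.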

Row | SMILES | Emax (μ-opioid receptor [1]) [%] | EC50 (μ-opioid receptor [1]) [µM] | Emax (κ-opioid receptor [2]) [%] | EC50 (κ-opioid receptor [2]) [nM] | Emax (μ-opioid receptor [3]) [%] | EC50 (μ-opioid receptor [3]) [nM] | Emax (κ-opioid receptor [4]) [%] | EC50 (κ-opioid receptor [4]) [nM] | EC50 (μ-opioid receptor [1]; bound given in μM) [µM]
1 | O=C(NCc1ccc(Cl)c(Cl)c1)[C@H]1C[C@]23CCN(CC4CC4)[C@H](Cc4ccc(O)cc42)[C@]3(O)C1 [Compound 47, (2S,3aS,4R,9bS)-12-(cyclopropylmethyl)-N-(3,4-dichlorobenzyl)-3a,8-dihydroxy-1,2,3,3a,4,5-hexahydro-4,9b-(epimino-ethano)cyclopenta[a]naphthalene-2-carboxamide] | 86 ± 3.46 | 0.00276 ± 8.2e-05 | 88.8 ± 10 | 0.03 ± 0.01 | 98.8 ± 1.49 | 0.05 ± 0.01 | 95 ± 5.29 | 0.015 | 
2 | Cc1ccc(CNC(=O)[C@@H]2C[C@]34CCN(CC5CC5)[C@H](Cc5ccc(O)cc53)[C@]4(O)C2)cc1 [Compound 37, (2R,3aS,4R,9bS)-12-(cyclopropylmethyl)-3a,8-dihydroxy-N-(4-methylbenzyl)-1,2,3,3a,4,5-hexahydro-4,9b-(epimino-ethano)cyclopenta[a]naphthalene-2-carboxamide] | 1 |  | 32.5 ± 2.1 | 1.74 ± 0.39 | 30.7 ± 2.67 | 8.48 ± 2.28 | 105.3 ± 0.88 | 0.97 ± 0.11 | > 20
3 | O=C(NCc1ccc(O)cc1O)[C@@H]1C[C@]23CCN(CC4CC4)[C@H](Cc4ccc(O)cc42)[C@]3(O)C1 [Compound 41, (2R,3aS,4R,9bS)-12-(cyclopropylmethyl)-N-(2,4-dihydroxybenzyl)-3a,8-dihydroxy-1,2,3,3a,4,5-hexahydro-4,9b-(epimino-ethano)cyclopenta[a]naphthalene-2-carboxamide] | 1 |  | 35.8 ± 3.07 | 1.74 ± 0.47 | 25.3 ± 1.33 | 4.19 ± 1.02 | 86.7 ± 6.74 | 1.02 ± 0.08 | > 20
4 | O=C(NCc1ccc(Cl)c(Cl)c1)[C@@H]1C[C@]23CCN(CC4CC4)[C@H](Cc4ccc(O)cc42)[C@]3(O)C1 [Compound 46, (2R,3aS,4R,9bS)-12-(cyclopropylmethyl)-N-(3,4-dichlorobenzyl)-3a,8-dihydroxy-1,2,3,3a,4,5-hexahydro-4,9b-(epimino-ethano)cyclopenta[a]naphthalene-2-carboxamide] | 0 |  | 32 ± 5 | 0.2 ± 0.072 | 38 ± 1.73 | 0.91 ± 0.05 | 106 ± 4.26 | 0.11 ± 0.01 | > 20
5 | N[C@@H]1CC23CCN(CC4CC4)[C@H](Cc4ccc(O)cc42)[C@]3(O)C1 (stereo in doubt) [Compound 22, (2R,3aS,4R,9bS)-2-amino-12-(cyclopropylmethyl)-1,2,3,3a,4,5-hexahydro-4,9b-(epiminoethano)-cyclopenta[a]naphthalene-3a,8-diol] | 1 |  | 77 ± 1 | 25.7 ± 4.99 | 20.7 ± 2.4 | 111 ± 14.1 | 101 ± 1.76 | 25.4 ± 2.09 | > 20
6 | NC(=O)[C@H]1C[C@]23CCN(CC4CC4)[C@H](Cc4ccc(O)cc42)[C@]3(O)C1 [Compound 30, (2S,3aS,4R,9bS)-12-(cyclopropylmethyl)-3a,8-dihydroxy-1,2,3,3a,4,5-hexahydro-4,9b-(epiminoethano)cyclopenta-[a]naphthalene-2-carboxamide] | 1 |  | 50.7 ± 0.33 | 2.49 ± 0.09 | 32 ± 1.15 | 1.62 ± 0.41 | 100 ± 1.2 | 1.26 ± 0.05 | > 20
7 | CC(C)CNC(=O)[C@H]1C[C@]23CCN(CC4CC4)[C@H](Cc4ccc(O)cc42)[C@]3(O)C1 [Compound 36, (2S,3aS,4R,9bS)-12-(cyclopropylmethyl)-3a,8-dihydroxy-N-isobutyl-1,2,3,3a,4,5-hexahydro-4,9b-(epiminoethano)-cyclopenta[a]naphthalene-2-carboxamide] | 1 |  | 94.7 ± 3.71 | 2.24 ± 0.46 | 47.7 ± 3.18 | 1.96 ± 0.27 | 108 ± 4.1 | 0.27 ± 0.019 | > 20
